Some results are limits rather than exact numbers.

From patent US20250320193A1, “OXOISOINDOLINYL SUBSTITUTED PIPERIDINEDIONE DERIVATIVE AND USE THEREOF” (GLUETACS THERAPEUTICS (SHANGHAI) CO., LTD., priority 2022, published 2025) come the findings set out here.

Assay type in all cases: cell-based
In one assay the target is GSPT1 (Homo sapiens (Human), UniProt P15170+Q96SW2). The assay can be described thus: Western blot, substrate protein expression in hPBMC: GSPT1. The note with it: for substrate protein remaining % GSPT1: hPBMC, compound 500 nM, 24 hours, Western blot. The protocol: (§1) The effect of the compounds of the present disclosure on the expression of target proteins in cells was detected using conventional Western blot analysis.
Sequence of GSPT1 (P15170 whole entry): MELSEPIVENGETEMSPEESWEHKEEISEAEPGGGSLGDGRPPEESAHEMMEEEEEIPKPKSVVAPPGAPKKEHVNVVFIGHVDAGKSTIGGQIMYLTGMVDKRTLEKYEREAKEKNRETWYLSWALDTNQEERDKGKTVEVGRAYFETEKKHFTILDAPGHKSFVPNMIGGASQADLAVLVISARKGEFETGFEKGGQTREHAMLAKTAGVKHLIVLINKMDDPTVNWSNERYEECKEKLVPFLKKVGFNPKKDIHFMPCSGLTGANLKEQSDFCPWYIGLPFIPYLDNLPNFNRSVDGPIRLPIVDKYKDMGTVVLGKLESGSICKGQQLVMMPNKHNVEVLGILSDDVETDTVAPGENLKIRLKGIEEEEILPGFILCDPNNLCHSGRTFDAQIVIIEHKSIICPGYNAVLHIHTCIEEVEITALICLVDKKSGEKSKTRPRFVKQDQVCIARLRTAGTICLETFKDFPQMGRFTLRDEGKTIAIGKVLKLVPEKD
Sequence of GSPT1 (Q96SW2 whole entry): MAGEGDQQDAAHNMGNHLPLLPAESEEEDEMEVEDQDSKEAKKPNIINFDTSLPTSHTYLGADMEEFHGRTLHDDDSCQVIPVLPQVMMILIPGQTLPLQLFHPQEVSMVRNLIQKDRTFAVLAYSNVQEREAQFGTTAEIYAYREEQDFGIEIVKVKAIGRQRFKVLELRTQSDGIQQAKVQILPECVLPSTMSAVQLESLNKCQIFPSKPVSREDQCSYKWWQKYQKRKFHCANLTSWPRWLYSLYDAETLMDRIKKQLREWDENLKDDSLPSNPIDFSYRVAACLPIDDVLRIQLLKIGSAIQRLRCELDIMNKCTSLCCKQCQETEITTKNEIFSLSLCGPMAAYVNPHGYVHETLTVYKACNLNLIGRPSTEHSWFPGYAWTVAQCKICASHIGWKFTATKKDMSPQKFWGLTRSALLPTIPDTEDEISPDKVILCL
Sequence of GSPT1 (Q16531 whole entry partner): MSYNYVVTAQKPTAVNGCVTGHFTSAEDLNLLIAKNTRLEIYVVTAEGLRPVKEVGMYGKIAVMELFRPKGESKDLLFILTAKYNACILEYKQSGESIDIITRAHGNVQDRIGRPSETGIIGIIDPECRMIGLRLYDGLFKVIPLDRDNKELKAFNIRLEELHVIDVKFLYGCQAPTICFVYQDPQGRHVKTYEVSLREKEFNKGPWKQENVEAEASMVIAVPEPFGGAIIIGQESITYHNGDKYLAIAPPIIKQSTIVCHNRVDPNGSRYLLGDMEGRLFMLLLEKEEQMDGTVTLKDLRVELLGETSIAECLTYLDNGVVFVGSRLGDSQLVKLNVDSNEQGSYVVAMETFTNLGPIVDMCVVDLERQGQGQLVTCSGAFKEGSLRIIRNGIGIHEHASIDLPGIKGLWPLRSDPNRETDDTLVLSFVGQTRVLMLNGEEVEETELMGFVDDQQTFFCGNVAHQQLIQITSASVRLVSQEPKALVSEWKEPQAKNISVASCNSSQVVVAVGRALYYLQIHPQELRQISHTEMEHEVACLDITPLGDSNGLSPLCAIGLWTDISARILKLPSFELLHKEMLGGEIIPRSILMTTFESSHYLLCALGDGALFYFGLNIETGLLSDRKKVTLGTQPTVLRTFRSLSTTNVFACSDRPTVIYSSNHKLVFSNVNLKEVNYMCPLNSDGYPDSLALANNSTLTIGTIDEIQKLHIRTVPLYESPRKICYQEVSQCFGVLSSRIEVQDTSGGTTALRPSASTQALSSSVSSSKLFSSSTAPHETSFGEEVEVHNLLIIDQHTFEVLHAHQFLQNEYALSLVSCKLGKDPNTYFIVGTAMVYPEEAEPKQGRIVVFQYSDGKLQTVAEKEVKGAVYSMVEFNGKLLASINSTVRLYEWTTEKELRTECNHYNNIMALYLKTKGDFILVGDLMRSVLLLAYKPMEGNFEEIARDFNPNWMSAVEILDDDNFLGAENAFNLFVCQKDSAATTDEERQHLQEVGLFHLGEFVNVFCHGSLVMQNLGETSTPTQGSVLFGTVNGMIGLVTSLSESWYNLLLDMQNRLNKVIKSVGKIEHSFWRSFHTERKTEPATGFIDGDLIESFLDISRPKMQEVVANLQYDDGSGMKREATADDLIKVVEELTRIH
(§2) Human peripheral blood mononuclear cells (hPBMCs) at a density of 1×10^6 cells/mL were thawed according to the PBMC Recovery Protocol (Milecell Biotechnologies Inc, Shanghai). […] After 24 hours of compounds treatment, cells were harvested and lysed in RIPA protein lysate containing phosphatase inhibitors on ice for 30-60 min, followed by centrifugation. The supernatant was aspirated as the extracted total cell protein. The protein concentration of the supernatant was determined using the conventional BCA (Bicinchoninic Acid) assay. The supernatant was then mixed with 4× SDS sample loading buffer, denatured at 95° C. for 5 minutes, and then subjected to SDS-PAGE electrophoresis on a polyacrylamide gel. Proteins were then transferred to a nitrocellulose (NC) membrane, blocked at room temperature for 1-2 h, and processed for antibody incubation and detection according to the manufacturer's instructions (Cell Signaling Technology).
(§3) Half-Maximal Degradation Concentration value (the drug concentration required for degrading proteins by 50%, abbreviated as DC50) reads method: comparing the grayscale values of Western blot bands from drug-treated samples (protein degrader compounds) with those from blank (DMSO-treated) controls, and identifying the drug concentration range at which the grayscale value is half that of the DMSO-treated control bands.
(§4) DC50 values can be calculated using ImageJ software to measure grayscale values of Western blot bands from drug-treated samples. The relationship curve between drug concentration and grayscale values is fitted to estimate the drug concentration corresponding to half the grayscale value.
(§5) Target protein remaining (%) refers to the percentage of target protein remaining in hPBMC cells after treatment with protein degrader compounds.
(§6) Calculation method for protein remaining (%): Use ImageJ software to measure grayscale values of Western blot bands from drug (protein degrader)-treated samples. The grayscale value of drug-treated bands is divided by that of internal control protein bands, and the resulting quotient is normalized to obtain the relative percentage of remaining target protein after protein degrader treatment.
(§7) Target protein degradation rate (%)=100%-target protein remaining (%).
For orientation: In western blotting, separated proteins are transferred to a membrane and probed.

Another assay addresses IKZF1 (Homo sapiens (Human), UniProt Q13422+Q96SW2). The assay can be described thus: Western blot, substrate protein expression in hPBMC: IKZF1. The settings on record: for substrate protein remaining % IKZF1: hPBMC, compound 500 nM, 24 hours, Western blot; for concentration at which IKZF1 protein was significantly degraded (Western blot, FIG. 1): hPBMCs. The protocol:
as §1, §2, §3, §4, §5, §6, §7

A further assay addresses IKZF3 (Homo sapiens (Human), UniProt Q96SW2+Q9UKT9). The assay can be described thus: Western blot, substrate protein expression in hPBMC: IKZF3. The note with it: for substrate protein remaining % IKZF3: hPBMC, compound 500 nM, 24 hours, Western blot; for concentration at which IKZF3 protein was significantly degraded (Western blot, FIG. 1): hPBMCs. The protocol: as §1, §2, §3, §4, §5, §6, §7

Sequence of IKZF3 (Q9UKT9 whole entry): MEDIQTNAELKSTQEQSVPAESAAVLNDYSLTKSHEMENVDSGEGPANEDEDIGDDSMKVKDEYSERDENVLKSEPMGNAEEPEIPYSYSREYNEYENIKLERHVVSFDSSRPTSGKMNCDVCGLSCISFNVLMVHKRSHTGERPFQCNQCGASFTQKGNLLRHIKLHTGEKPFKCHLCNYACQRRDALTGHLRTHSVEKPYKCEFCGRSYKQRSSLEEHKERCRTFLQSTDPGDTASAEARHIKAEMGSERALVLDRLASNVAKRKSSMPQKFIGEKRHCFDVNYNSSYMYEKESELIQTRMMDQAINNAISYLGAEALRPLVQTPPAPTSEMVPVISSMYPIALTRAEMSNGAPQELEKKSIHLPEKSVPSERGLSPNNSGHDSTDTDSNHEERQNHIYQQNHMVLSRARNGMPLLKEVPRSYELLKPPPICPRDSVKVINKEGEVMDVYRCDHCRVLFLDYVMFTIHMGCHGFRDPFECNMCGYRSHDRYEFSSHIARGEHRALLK
Sequence of IKZF3 (Q96SW2 whole entry): as the sequence (Q96SW2 whole entry) above
Sequence of IKZF3 (Q16531 whole entry partner): as the sequence (Q16531 whole entry partner) above
Sequence of IKZF1 (Q13422 whole entry): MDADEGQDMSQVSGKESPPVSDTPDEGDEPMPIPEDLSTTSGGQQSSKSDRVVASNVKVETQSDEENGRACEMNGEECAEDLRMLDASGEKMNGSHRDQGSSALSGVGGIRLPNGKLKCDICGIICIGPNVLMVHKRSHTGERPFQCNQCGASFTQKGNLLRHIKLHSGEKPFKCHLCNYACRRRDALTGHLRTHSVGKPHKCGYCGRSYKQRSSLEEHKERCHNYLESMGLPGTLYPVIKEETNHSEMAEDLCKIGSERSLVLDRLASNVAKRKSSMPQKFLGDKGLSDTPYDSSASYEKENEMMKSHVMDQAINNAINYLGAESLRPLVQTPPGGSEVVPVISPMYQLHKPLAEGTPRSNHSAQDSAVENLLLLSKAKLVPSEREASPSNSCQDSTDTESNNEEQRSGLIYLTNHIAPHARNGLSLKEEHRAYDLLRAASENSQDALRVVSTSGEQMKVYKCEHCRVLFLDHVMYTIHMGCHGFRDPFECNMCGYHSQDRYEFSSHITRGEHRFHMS
Sequence of IKZF1 (Q96SW2 whole entry): as the sequence (Q96SW2 whole entry) above
Sequence of IKZF1 (Q16531 whole entry partner): as the sequence (Q16531 whole entry partner) above

For `O=C1CCC(N2Cc3c(ccc(CN4C5CC4CN(C(c4ccccc4)c4ccccc4)C5)c3F)C2=O)C(=O)N1` (centres unmarked) [GT-03572, 3-(5-((3-benzhydryl-3,6-diazabicyclo[3.1.1]heptan-6-yl)methyl)-4-fluoro-1-oxoisoindolin-2-yl)piperidine-2,6-dione], the “substrate protein remaining % GSPT1” value on GSPT1 was “A (A represents 0% ≤ substrate protein remaining % ≤ 50%)”. For the same molecule, the “substrate protein remaining % IKZF1” value at IKZF1 is on record as “B (B represents substrate protein remaining % > 50%)”. On IKZF3, the “substrate protein remaining % IKZF3” value is “A (A represents 0% ≤ substrate protein remaining % ≤ 50%)”.
On to `O=C1CCC(N2Cc3c(CN4CCN(C(c5ccc(Cl)cc5)c5ccc(Cl)cc5)CC4)cccc3C2=O)C(=O)N1` (centres unmarked) [GT-03648, 3-(4-((4-(bis(4-chlorophenyl)methyl)piperazin-1-yl)methyl)-1-oxoisoindolin-2-yl)piperidine-2,6-dione], for which the “substrate protein remaining % GSPT1” value on GSPT1 is reported as “A (A represents 0% ≤ substrate protein remaining % ≤ 50%)”. The “substrate protein remaining % IKZF1” value at IKZF1 is listed as “B (B represents substrate protein remaining % > 50%)”. Moreover, the “substrate protein remaining % IKZF3” value on IKZF3 was “B (B represents substrate protein remaining % > 50%)”.
As to `O=C1CCC(N2Cc3cc(CN4CCN(C(c5cccnc5)c5cccnc5)CC4)c(F)cc3C2=O)C(=O)N1` (centres unmarked) [GT-04386, 3-(5-((4-(di(pyridin-3-yl)methyl)piperazin-1-yl)methyl)-6-fluoro-1-oxoisoindolin-2-yl)piperidine-2,6-dione], the “substrate protein remaining % GSPT1” value on GSPT1 is listed as “A (A represents 0% ≤ substrate protein remaining % ≤ 50%)”. In addition, the “substrate protein remaining % IKZF1” value on IKZF1 is “B (B represents substrate protein remaining % > 50%)”. In addition, at IKZF3, the “substrate protein remaining % IKZF3” value is listed as “B (B represents substrate protein remaining % > 50%)”.
`O=C1CCC(N2C(=O)c3ccc(CN4CCN(C(c5ccccc5)c5ccccc5)CC4)cc3C2=O)C(=O)N1` (centres unmarked) [GT-05690, 5-((4-benzhydrylpiperazin-1-yl)methyl)-2-(2,6-dioxopiperidin-3-yl) isoindoline-1,3-dione]: the “substrate protein remaining % GSPT1” value at GSPT1 is “A (A represents 0% ≤ substrate protein remaining % ≤ 50%)”. In addition, at IKZF1, the “substrate protein remaining % IKZF1” value is listed as “A (A represents 0% ≤ substrate protein remaining % ≤ 50%)” and the “concentration at which IKZF1 protein was significantly degraded (Western blot, FIG. 1)” value was < 500 nM. Moreover, at IKZF3, the “substrate protein remaining % IKZF3” value is reported as “A (A represents 0% ≤ substrate protein remaining % ≤ 50%)” and the “concentration at which IKZF3 protein was significantly degraded (Western blot, FIG. 1)” value is < 500 nM.
As for `O=C1CCC(N2C(=O)c3ccc(CN4CCN(C(c5ccccc5)c5ccccn5)CC4)cc3C2=O)C(=O)N1` (centres unmarked) [GT-05723, 2-(2,6-dioxopiperidin-3-yl)-5-((4-(phenyl(pyridin-2-yl)methyl)piperazin-1-yl)methyl) isoindoline-1,3-dione], the “substrate protein remaining % GSPT1” value at GSPT1 is given as “A (A represents 0% ≤ substrate protein remaining % ≤ 50%)”. In addition, the “substrate protein remaining % IKZF1” value at IKZF1 is “B (B represents substrate protein remaining % > 50%)”. Also, the “substrate protein remaining % IKZF3” value at IKZF3 is on record as “B (B represents substrate protein remaining % > 50%)”.
In the case of `O=C1CCC(N2C(=O)c3ccc(CN4CCN(C(c5ccc(F)cc5)c5ccc(F)cc5)CC4)cc3C2=O)C(=O)N1` (centres unmarked) [GT-05726, 5-((4-(bis(4-fluorophenyl)methyl)piperazin-1-yl)methyl)-2-(2,6-dioxopiperidin-3-yl) isoindoline-1,3-dione], the “substrate protein remaining % GSPT1” value at GSPT1 was “A (A represents 0% ≤ substrate protein remaining % ≤ 50%)”. At IKZF1, the “substrate protein remaining % IKZF1” value is reported as “B (B represents substrate protein remaining % > 50%)”. Also, the “substrate protein remaining % IKZF3” value on IKZF3 is on record as “A (A represents 0% ≤ substrate protein remaining % ≤ 50%)”.
As for `O=C1CCC(N2C(=O)c3ccc(CN4CCN(C(c5ccc(Cl)cc5)c5ccc(Cl)cc5)CC4)cc3C2=O)C(=O)N1` (centres unmarked) [GT-05727, 5-((4-(bis(4-chlorophenyl)methyl)piperazin-1-yl)methyl)-2-(2,6-dioxopiperidin-3-yl) isoindoline-1,3-dione], at GSPT1, the “substrate protein remaining % GSPT1” value is “A (A represents 0% ≤ substrate protein remaining % ≤ 50%)”. In addition, on IKZF1, the “substrate protein remaining % IKZF1” value is recorded as “B (B represents substrate protein remaining % > 50%)”. For the same molecule, the “substrate protein remaining % IKZF3” value on IKZF3 is “A (A represents 0% ≤ substrate protein remaining % ≤ 50%)”.
Take `O=C1CCC(N2C(=O)c3ccc(CN4CCCN(C(c5ccccc5)c5ccccc5)CC4)cc3C2=O)C(=O)N1` (centres unmarked) [GT-05739, 5-((4-benzhydryl-1,4-diazepan-1-yl)methyl)-2-(2,6-dioxopiperidin-3-yl) isoindoline-1,3-dione]: the “substrate protein remaining % GSPT1” value at GSPT1 is reported as “A (A represents 0% ≤ substrate protein remaining % ≤ 50%)”. In addition, on IKZF1, the “substrate protein remaining % IKZF1” value is given as “B (B represents substrate protein remaining % > 50%)”. The “substrate protein remaining % IKZF3” value on IKZF3 is reported as “B (B represents substrate protein remaining % > 50%)”.
With `O=C1CCC(N2C(=O)c3ccc(CN4CCC(N(c5ccccc5)c5ccccn5)CC4)cc3C2=O)C(=O)N1` (centres unmarked) [GT-05742, 2-(2,6-dioxopiperidin-3-yl)-5-((4-(phenyl(pyridin-2-yl)amino)piperidin-1-yl)methyl) isoindoline-1,3-dione], on GSPT1, the “substrate protein remaining % GSPT1” value was “A (A represents 0% ≤ substrate protein remaining % ≤ 50%)”. Further, the “concentration at which GSPT1 protein was clearly/significantly degraded (Western blot, FIG. 1)” value on GSPT1 (hPBMCs) is recorded as “below 50 nM”. Also, at IKZF1, the “substrate protein remaining % IKZF1” value is given as “A (A represents 0% ≤ substrate protein remaining % ≤ 50%)” and the “concentration at which IKZF1 protein was significantly degraded (Western blot, FIG. 1)” value was “below 50 nM”. Also, at IKZF3, the “substrate protein remaining % IKZF3” value is “A (A represents 0% ≤ substrate protein remaining % ≤ 50%)” and the “concentration at which IKZF3 protein was significantly degraded (Western blot, FIG. 1)” value is listed as “below 50 nM”.
Take `O=C1CCC(N2Cc3ccc(C(=O)N4CCN(C(c5ccccc5)c5ccccc5)CC4)cc3C2=O)C(=O)N1` (centres unmarked) [GT-05851, 3-(6-(4-benzhydrylpiperazine-1-carbonyl)-1-oxoisoindolin-2-yl)piperidine-2,6-dione]: the “substrate protein remaining % GSPT1” value at GSPT1 is “A (A represents 0% ≤ substrate protein remaining % ≤ 50%)”. Moreover, the “substrate protein remaining % IKZF1” value at IKZF1 was “A (A represents 0% ≤ substrate protein remaining % ≤ 50%)”. Also, the “substrate protein remaining % IKZF3” value at IKZF3 is recorded as “B (B represents substrate protein remaining % > 50%)”.
Regarding `O=C1CCC(N2C(=O)c3ccc(C(=O)N4CCN(C(c5ccccn5)c5ccccn5)CC4)cc3C2=O)C(=O)N1` (centres unmarked) [GT-05880, 5-(4-(di(pyridin-2-yl)methyl)piperazine-1-carbonyl)-2-(2,6-dioxopiperidin-3-yl) isoindoline-1,3-dione], the “substrate protein remaining % GSPT1” value at GSPT1 is on record as “A (A represents 0% ≤ substrate protein remaining % ≤ 50%)”. The “substrate protein remaining % IKZF1” value on IKZF1 is “B (B represents substrate protein remaining % > 50%)”. Also, the “substrate protein remaining % IKZF3” value on IKZF3 is listed as “B (B represents substrate protein remaining % > 50%)”.
Turning to `O=C1CCC(N2C(=O)c3ccc(C(=O)N4CCN(C(c5ccc(F)cc5)c5ccc(F)cc5)CC4)cc3C2=O)C(=O)N1` (centres unmarked) [GT-05885, 5-(4-(bis(4-fluorophenyl)methyl)piperazine-1-carbonyl)-2-(2,6-dioxopiperidin-3-yl) isoindoline-1,3-dione], at GSPT1, the “substrate protein remaining % GSPT1” value is “A (A represents 0% ≤ substrate protein remaining % ≤ 50%)”. Moreover, the “substrate protein remaining % IKZF1” value on IKZF1 was “B (B represents substrate protein remaining % > 50%)”. In addition, the “substrate protein remaining % IKZF3” value at IKZF3 is “B (B represents substrate protein remaining % > 50%)”.
